The supplement of paper PMC10307832

Experiments:
Assay in all cases: relative viability (nuclei count vs DMSO), 5 days (fraction); higher = more cells survive
[1] = compound: O=C(CCCCCCC(=O)Nc1ccccc1)NO [Vorinostat] + CC(=O)Nc1cccc(-n2c(=O)n(C3CC3)c(=O)c3c(Nc4ccc(I)cc4F)n(C)c(=O)c(C)c32)c1 [Trametinib] (partner 0.02 µM)
In short: (§1)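 Lung cancer cell lines, seeded in 1536-well plates, were treated the following day by pin tool with a single drug or with five library-drug doses (not always all listed) in √10 steps on top of a fixed anchor-drug dose. Cells were fixed and nuclei stained in one step after 5 days, and nuclei were counted. Relative viability is the nuclei count for treated wells divided by that for vehicle wells, reported as medians of duplicate plates.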

[2] = compound: O=C(CCCCCCC(=O)Nc1ccccc1)NO [Vorinostat] + CS(=O)(=O)N1CCN(Cc2cc3nc(-c4cccc5[nH]ncc45)nc(N4CCOCC4)c3s2)CC1 [Pictilisib] (partner 1 µM)
In short: as §1

[3] = compound: O=C(CCCCCCC(=O)Nc1ccccc1)NO [Vorinostat] + NC(=O)Nc1cc(-c2cccc(F)c2)sc1C(=O)N[C@H]1CCCNC1 [AZD7762] (partner 0.2 µM)
In short: as §1

[4] = compound: O=C(CCCCCCC(=O)Nc1ccccc1)NO [Vorinostat] + Nc1nc2[nH]cc(CCc3ccc(C(=O)N[C@@H](CCC(=O)O)C(=O)O)cc3)c2c(=O)[nH]1 [Pemetrexed] (partner 0.2 µM)
In short: as §1

[5] = compound: O=C(CCCCCCC(=O)Nc1ccccc1)NO [Vorinostat] + Nc1ncn([C@H]2C[C@H](O)[C@@H](CO)O2)c(=O)n1 [Decitabine] (partner 2 µM)
In short: as §1

Row | Cell Line | relative viability ([1]; first compound 0.253 µM) | relative viability ([1]; first compound 0.8 µM) | relative viability ([1]; first compound 2.53 µM) | relative viability ([1]; first compound 8 µM) | relative viability ([2]; first compound 0.253 µM) | relative viability ([2]; first compound 0.8 µM) | relative viability ([2]; first compound 2.53 µM) | relative viability ([2]; first compound 8 µM) | relative viability ([3]; first compound 0.253 µM) | relative viability ([3]; first compound 0.8 µM) | relative viability ([3]; first compound 2.53 µM) | relative viability ([3]; first compound 8 µM) | relative viability ([4]; first compound 0.253 µM) | relative viability ([4]; first compound 0.8 µM) | relative viability ([4]; first compound 2.53 µM) | relative viability ([4]; first compound 8 µM) | relative viability ([5]; first compound 0.253 µM) | relative viability ([5]; first compound 0.8 µM) | relative viability ([5]; first compound 2.53 µM) | relative viability ([5]; first compound 8 µM)
1 | NCI-H441 | 0.555 | 0.602 | 0.226 | 0.127 | 0.517 | 0.448 | 0.164 | 0.11 | 1.21 | 0.903 | 0.238 | 0.122 | 0.252 | 0.232 | 0.253 | 0.143 | 0.223 | 0.199 | 0.168 | 0.104
2 | HCC-44 | 1.11 | 0.968 | 0.91 | 0.286 | 0.603 | 0.411 | 0.308 | 0.0904 | 1.01 | 1.02 | 0.879 | 0.526 | 0.663 | 0.683 | 0.628 | 0.485 | 1.03 | 0.896 | 0.737 | 0.413
3 | NCI-H358 | 0.171 | 0.149 | 0.0954 | 0.0859 | 0.372 | 0.468 | 0.17 | 0.172 | 0.466 | 0.312 | 0.14 | 0.159 | 0.155 | 0.155 | 0.152 | 0.0859 | 0.202 | 0.196 | 0.105 | 0.091
4 | NCI-H460 | 0.231 | 0.0799 | 0.0298 | 0.0227 | 0.37 | 0.279 | 0.208 | 0.0481 | 0.348 | 0.446 | 0.0499 | 0.0349 | 0.0729 | 0.064 | 0.0548 | 0.0231 | 0.526 | 0.377 | 0.0496 | 0.0202
5 | NCI-H1395 | 1.23 | 0.964 | 0.777 | 0.412 | 0.637 | 0.619 | 0.427 | 0.362 | 0.37 | 0.373 | 0.375 | 0.296 | 0.733 | 0.746 | 0.533 | 0.321 | 0.857 | 0.69 | 0.565 | 0.343
6 | NCI-H596 | 0.876 | 0.632 | 0.426 | 0.235 | 0.355 | 0.357 | 0.316 | 0.277 | 1.13 | 0.732 | 0.543 | 0.384 | 0.503 | 0.465 | 0.412 | 0.346 | 1.07 | 0.902 | 0.68 | 0.36
7 | NCI-H1651 | 0.869 | 0.76 | 0.343 | 0.062 | 0.659 | 0.433 | 0.0763 | 0.0536 | 0.308 | 0.45 | 0.22 | 0.0691 | 0.614 | 0.577 | 0.377 | 0.0787 | 0.58 | 0.477 | 0.202 | 0.0686
8 | EKVX | 0.401 | 0.337 | 0.18 | 0.115 | 0.475 | 0.441 | 0.21 | 0.103 | 0.838 | 0.489 | 0.199 | 0.136 | 0.384 | 0.413 | 0.386 | 0.146 | 0.31 | 0.324 | 0.194 | 0.133
9 | EPLC-272H | 0.296 | 0.269 | 0.168 | 0.11 | 0.309 | 0.227 | 0.212 | 0.145 | 0.135 | 0.171 | 0.069 | 0.138 | 0.367 | 0.381 | 0.212 | 0.159 | 0.309 | 0.338 | 0.189 | 0.152
10 | NCI-H1734 | 0.721 | 0.713 | 0.5 | 0.117 | 0.512 | 0.49 | 0.299 | 0.13 | 0.306 | 0.292 | 0.162 | 0.0959 | 0.44 | 0.413 | 0.408 | 0.131 | 0.548 | 0.444 | 0.31 | 0.0873
11 | NCI-H2405 | 0.87 | 0.872 | 0.486 | 0.141 | 0.478 | 0.542 | 0.153 | 0.0468 | 0.904 | 0.742 | 0.262 | 0.11 | 1.18 | 1.1 | 0.357 | 0.122 | 0.794 | 0.741 | 0.478 | 0.121
12 | LXF-289 | 0.709 | 0.639 | 0.424 | 0.0759 | 0.913 | 0.704 | 0.272 | 0.088 | 1.14 | 1.09 | 0.344 | 0.0727 | 0.905 | 0.794 | 0.554 | 0.0613 | 0.328 | 0.37 | 0.229 | 0.0489
13 | HCC-827 | 0.712 | 0.642 | 0.351 | 0.163 | 1.1 | 1.08 | 0.732 | 0.411 | 0.181 | 0.321 | 0.215 | 0.178 | 0.269 | 0.278 | 0.212 | 0.153 | 0.344 | 0.343 | 0.274 | 0.213
14 | RERF-LC-KJ | 0.897 | 0.732 | 0.308 | 0.201 | 0.562 | 0.474 | 0.182 | 0.164 | 1.06 | 0.977 | 0.379 | 0.211 | 0.472 | 0.39 | 0.333 | 0.212 | 0.79 | 0.614 | 0.184 | 0.254
15 | NCI-H1355 | 0.484 | 0.331 | 0.231 | 0.131 | 0.556 | 0.329 | 0.244 | 0.165 | 0.892 | 0.595 | 0.394 | 0.15 | 1.09 | 1.01 | 0.536 | 0.246 | 0.393 | 0.354 | 0.253 | 0.143
16 | NCI-H1792 | 0.292 | 0.257 | 0.145 | 0.0464 | 0.283 | 0.179 | 0.0803 | 0.0579 | 0.568 | 0.29 | 0.0683 | 0.0252 | 0.795 | 0.524 | 0.163 | 0.0208 | 0.414 | 0.413 | 0.163 | 0.0341
